Data: patent publication US20010029304A1, “Cyclopentane heptan (ENE)OIC acid, 2-heteroarylalkenyl derivatives as therapeutic agents” (ALLERGAN, priority 1996, published 2001)

How the values were obtained:
EP4 = molecular target: T1, EP4 (Oryctolagus cuniculus, UniProt Q28691); test: EP4-activity: relaxation of smooth muscle of isolated rabbit jugular vein; assay type: cell-based; conditions: nM printed only with EC50 in the table head
T1 construct: smooth muscle of isolated rabbit jugular vein; from tissue; host or cells: isolated rabbit jugular vein smooth muscle
Description: (§1) Activity at different prostanoid receptors was measured in vitro in isolated smooth muscle preparations. FP-activity was measured as contraction of the isolated feline iris sphincter. EP4-activity was measured as relaxation of smooth muscle of isolated rabbit jugular vein. TP-vasoconstrictor activity was measured as contraction of rings of the isolated rat thoracic aorta. Effects on platelets from healthy human donors were measured by incubating platelet-rich plasma with the compounds described herein. Inhibition of aggregation was determined by the ability of the compounds described herein to inhibit platelet aggregation in platelet-rich plasma induced by 20 μM adenosine diphosphate (ADP).

Dog intraocular pressure = Dog intraocular pressure (applanation pneumatonometry) with hyperemia/miosis; assay type: in vivo; conditions: for Dog IOP (1 day): 25 μl to the ocular surface, IOP before and at 6 hours after drug; for Hyp: first part of Hyp/Mlosis cell; for Mlosis: second part of Hyp/Mlosis cell
Description: The compounds were prepared at the said concentrations in a vehicle comprising 0.1% polysorbate 80 and 10 mM tris (hydroxy methyl) aminomethane hydrochloride (TRIS) base. Dogs were treated by administering 25 μl to the ocular surface, the contralateral eye received vehicle as a control. Intraocular pressure was measured by applanation pneumatonometry. Dog intraocular pressure was measured immediately before drug administration and at 6 hours thereafter.

TP = molecular target: T2, TP (Rattus norvegicus, UniProt P34978); test: TP-vasoconstrictor activity: contraction of rings of the isolated rat thoracic aorta; assay type: cell-based; conditions: EC50 (nM) printed in the first part of the table head
T2 construct: rings of the isolated rat thoracic aorta; from tissue; host or cells: rings of isolated rat thoracic aorta
T2 sequence (P34978 1-341): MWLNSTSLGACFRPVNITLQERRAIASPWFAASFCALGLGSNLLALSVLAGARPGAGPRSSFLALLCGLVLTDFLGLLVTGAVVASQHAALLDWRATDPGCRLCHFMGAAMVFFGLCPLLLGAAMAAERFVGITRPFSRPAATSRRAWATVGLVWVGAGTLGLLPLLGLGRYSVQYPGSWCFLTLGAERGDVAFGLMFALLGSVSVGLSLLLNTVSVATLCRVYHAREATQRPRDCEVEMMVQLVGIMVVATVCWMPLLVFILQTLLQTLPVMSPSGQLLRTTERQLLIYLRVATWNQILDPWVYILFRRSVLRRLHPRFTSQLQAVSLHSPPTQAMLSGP
Description: as §1

T1 sequence (Q28691 whole entry): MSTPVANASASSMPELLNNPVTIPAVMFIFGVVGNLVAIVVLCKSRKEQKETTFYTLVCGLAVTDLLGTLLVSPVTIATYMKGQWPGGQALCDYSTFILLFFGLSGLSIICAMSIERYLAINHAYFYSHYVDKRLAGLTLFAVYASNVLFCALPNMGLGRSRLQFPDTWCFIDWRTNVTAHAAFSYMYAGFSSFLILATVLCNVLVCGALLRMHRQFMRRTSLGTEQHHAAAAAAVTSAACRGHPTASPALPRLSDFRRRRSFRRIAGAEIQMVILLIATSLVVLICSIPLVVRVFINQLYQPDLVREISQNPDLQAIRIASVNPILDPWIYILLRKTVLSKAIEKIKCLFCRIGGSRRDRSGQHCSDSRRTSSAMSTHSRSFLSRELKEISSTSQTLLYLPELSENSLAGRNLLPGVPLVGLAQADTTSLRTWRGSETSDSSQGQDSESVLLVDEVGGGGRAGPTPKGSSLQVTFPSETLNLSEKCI

Row | Compound | IC25 EP4 (EP4) | Hyp (Dog intraocular pressure; 0.01%) | Mlosis (Dog intraocular pressure; 0.01%) | Hyp (Dog intraocular pressure; 0.1%) | Mlosis (Dog intraocular pressure; 0.1%) | EC50 (TP) | Dog IOP (1 day) (Dog intraocular pressure; 0.01%) | Dog IOP (1 day) (Dog intraocular pressure; 0.1%)
1 | NC(=O)CCC/C=C\C[C@H]1C(O)CC(O)C1/C=C/C(O)CCc1ccco1 (some centres unmarked) | 620 nM | 1.5 | pinpoint | 1.0 | pinpoint |  | −3.2 | −4.4
2 | Cc1ccc(CCC(O)/C=C/C2C(O)CC(O)[C@@H]2C/C=C\CCCC(N)=O)o1 (some centres unmarked) | 3760 nM |  |  | 0.75 | pinpoint |  |  | 0.1%/−2.1
3 | O=C(O)CCC/C=C\C[C@H]1C(O)CC(O)C1/C=C/C(O)CCc1cc(Br)c(Br)s1 (some centres unmarked) | 23 nM |  |  |  |  | 692 nM |  | 
4 | NC(=O)CCC/C=C\C[C@H]1C(O)CC(O)C1/C=C/C(O)CCc1cc(Br)c(Br)s1 (some centres unmarked) | 165 nM |  |  |  |  |  |  | 
5 | O=C(O)CCC/C=C\C[C@H]1C(O)CC(O)C1/C=C/C(O)CCc1sc2ccccc2c1Cl (some centres unmarked) | 21190 nM |  |  |  |  |  |  | 

Continued, in another order:

Row | IC25 EP4 (EP4) | Hyp (Dog intraocular pressure; 0.01%) | Mlosis (Dog intraocular pressure; 0.01%) | Hyp (Dog intraocular pressure; 0.1%) | Mlosis (Dog intraocular pressure; 0.1%) | EC50 (TP) | Compound | Dog IOP (1 day) (Dog intraocular pressure; 0.01%) | Dog IOP (1 day) (Dog intraocular pressure; 0.1%)
6 | 100 nM |  |  |  |  |  | COC(/C=C/C1C(O)CC(O)[C@@H]1C/C=C\CCCC(=O)O)CCc1ccsc1C (some centres unmarked) |  | 
7 | 1630 nM |  |  | 0.6 | pinpoint |  | Cc1cc(CCC(O)/C=C/C2C(O)CC(O)[C@@H]2C/C=C\CCCC(N)=O)cs1 (some centres unmarked) |  | 0.1%/−3.6
8 | 57 nM |  |  |  |  |  | COC(/C=C/C1C(O)CC(O)[C@@H]1C/C=C\CCCC(=O)O)CCc1ccco1 (some centres unmarked) |  | 
9 | 23 nM |  |  | 1.13 | pinpoint | > 10000 nM | Cc1ccc(CCC(O)/C=C/C2C(O)CC(O)[C@@H]2C/C=C\CCCC(=O)O)o1 (some centres unmarked) |  | 0.1%/−2.7
